Assay results from the supplement of paper PMC10307832.

Tests used:
Assay in all cases: relative viability (nuclei count vs DMSO), 5 days (fraction); higher = more cells survive
Ibrutinib + Dasatinib = compound: C=CC(=O)N1CCC[C@@H](n2nc(-c3ccc(Oc4ccccc4)cc3)c3c(N)ncnc32)C1 [Ibrutinib] + Cc1nc(Nc2ncc(C(=O)Nc3c(C)cccc3Cl)s2)cc(N2CCN(CCO)CC2)n1 [Dasatinib] (partner 0.075 µM)
In short: (§1)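 One day after seeding in 1536-well plates, lung cancer cell lines were dosed by pin tool. Dosing was either single-drug or a fixed anchor-drug dose plus five library-drug doses (not always all listed) in √10 steps. After 5 days, nuclei were stained in one fix-and-stain step and counted on 4× images, and relative viability is the nuclei count of treated wells over that of vehicle wells, given as the median of duplicate plates.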

BMX-IN-1 + Tozasertib = compound: C=CC(=O)Nc1cc(-n2c(=O)ccc3cnc4ccc(-c5ccc(NS(C)(=O)=O)cc5)cc4c32)ccc1C [BMX-IN-1] + Cc1cc(Nc2cc(N3CCN(C)CC3)nc(Sc3ccc(NC(=O)C4CC4)cc3)n2)n[nH]1 [Tozasertib] (partner 0.1 µM)
In short: as §1

PAC-1 + Lapatinib = compound: C=CCc1cccc(/C=N/NC(=O)CN2CCN(Cc3ccccc3)CC2)c1O [PAC-1] + CS(=O)(=O)CCNCc1ccc(-c2ccc3ncnc(Nc4ccc(OCc5cccc(F)c5)c(Cl)c4)c3c2)o1 [Lapatinib] (partner 2 µM)
In short: as §1

PAC-1 + Crizotinib = compound: C=CCc1cccc(/C=N/NC(=O)CN2CCN(Cc3ccccc3)CC2)c1O [PAC-1] + C[C@@H](Oc1cc(-c2cnn(C3CCNCC3)c2)cnc1N)c1c(Cl)ccc(F)c1Cl [Crizotinib] (partner 1 µM)
In short: as §1

Cell Line	relative viability (Ibrutinib + Dasatinib; first compound 0.005 µM)	relative viability (Ibrutinib + Dasatinib; first compound 0.01581 µM)	relative viability (Ibrutinib + Dasatinib; first compound 0.05 µM)	relative viability (Ibrutinib + Dasatinib; first compound 0.1581 µM)	relative viability (Ibrutinib + Dasatinib; first compound 0.5 µM)	relative viability (BMX-IN-1 + Tozasertib; first compound 0.02 µM)	relative viability (BMX-IN-1 + Tozasertib; first compound 0.2 µM)	relative viability (BMX-IN-1 + Tozasertib; first compound 0.6325 µM)	relative viability (BMX-IN-1 + Tozasertib; first compound 2 µM)	relative viability (PAC-1 + Lapatinib; first compound 0.02 µM)	relative viability (PAC-1 + Lapatinib; first compound 0.06325 µM)	relative viability (PAC-1 + Lapatinib; first compound 0.2 µM)	relative viability (PAC-1 + Lapatinib; first compound 2 µM)	relative viability (PAC-1 + Crizotinib; first compound 0.02 µM)	relative viability (PAC-1 + Crizotinib; first compound 0.06325 µM)	relative viability (PAC-1 + Crizotinib; first compound 0.2 µM)	relative viability (PAC-1 + Crizotinib; first compound 2 µM)
NCI-H1734	0.36	0.473	0.506	0.521	0.454	0.292	0.285	0.256	0.229	1.12	0.987	1.04	1.01	0.698	0.627	0.659	0.766
NCI-H1755	0.478	0.365	0.444	0.484	0.383	0.493	0.578	0.577	0.519	0.987	1.03	1.02	1.05	0.938	0.867	0.847	0.805
NCI-H1915	0.287	0.292	0.288	0.319	0.369	0.438	0.586	0.504	0.445	0.971	0.995	0.917	0.92	0.892	0.899	0.85	0.857
NCI-H1944	0.21	0.18	0.206	0.178	0.193	0.279	0.254	0.236	0.244	0.754	0.798	0.768	0.867	1.06	1.16	1.02	1.14
NCI-H1975	0.349	0.293	0.263	0.345	0.134	0.958	1.1	0.792	0.695	0.866	0.871	0.939	0.97	0.919	0.916	0.944	1
NCI-H1993	0.504	0.658	0.532	0.53	0.56	0.624	0.652	0.585	0.498	0.774	0.835	0.838	0.887	0.811	0.831	0.626	0.743
NCI-H2009	0.3	0.254	0.319	0.267	0.386	0.826	0.853	0.781	0.712	0.93	0.318	0.855	0.9	1.04	1.05	0.979	0.964
NCI-H2023	0.578	0.546	0.532	0.55	0.516	0.363	0.43	0.434	0.333	1.1	0.849	0.768	0.847	0.629	0.635	0.534	0.586
NCI-H2085	0.26	0.254	0.219	0.202	0.216	0.873	0.754	0.794	0.734	0.756	0.728	0.707	0.909	0.742	0.899	0.789	0.947
NCI-H2087	1.11	0.91	1.01	–	0.951	0.244	0.24	0.344	0.263	1.07	1.06	0.815	0.922	0.995	0.966	0.728	0.68
NCI-H2126	0.506	0.57	0.546	0.574	0.623	1.03	0.947	0.867	0.829	0.745	0.763	0.817	0.816	1.03	1.02	1.05	1
NCI-H2170	0.464	0.413	0.209	0.447	0.211	0.771	0.779	0.625	0.777	0.247	0.258	0.255	0.264	1.15	1.25	1.14	1.03
NCI-H2228	0.584	–	0.553	0.5	0.428	0.243	0.245	0.243	0.224	1.26	1.25	1.02	1.23	0.467	0.416	0.498	0.398
NCI-H2347	–	0.298	0.274	0.188	0.302	0.518	0.471	0.585	0.537	0.947	0.885	0.859	0.892	0.82	0.715	0.748	0.826
NCI-H2405	0.232	0.19	0.189	0.206	0.237	0.808	0.76	0.861	0.747	1.03	1.17	1.14	1.24	0.862	0.829	0.818	0.862
NCI-H3122	0.816	0.841	0.699	0.676	0.771	0.516	0.399	0.461	0.117	1.01	1.03	0.983	0.953	0.251	0.274	0.234	0.294
PC-3 [JPC-3]	0.865	0.862	0.774	0.979	0.327	1.02	1.02	1.08	0.951	0.416	0.474	0.447	0.465	1.03	1.07	0.944	0.972
PC-14	–	0.228	0.209	0.312	0.0569	0.672	0.658	0.605	0.571	0.324	0.315	0.275	0.321	0.946	0.931	0.855	0.945
RERF-LC-KJ	0.936	0.637	0.757	0.85	0.88	0.566	0.642	0.472	0.435	0.857	0.817	0.864	0.87	0.814	0.868	0.811	0.923
